Source: patent US11634607B2, “Compositions for containers and other articles and methods of using same” (SWIMC LLC, priority 2011, dated 2023)

Tested on: MCF-7, clone WS8, cells
Assay: MCF-7 cell proliferation assay of estrogenic activity
Format: cell-based, human
Details: logarithmic (base 10) Relative Proliferative Effect vs 17-beta estradiol; 'expected or measured' values, not told apart
Excerpt: The MCF-7 assay uses MCF-7, clone WS8, cells to measure whether and to what extent a substance induces cell proliferation via estrogen receptor (ER)-mediated pathways. The method is described in “Test Method Nomination: MCF-7 Cell Proliferation Assay of Estrogenic Activity” submitted for validation by CertiChem, Inc. to the National Toxicology Program Interagency Center for the Evaluation of Alternative Toxicological Methods (NICEATM) on Jan. 19, 2006 (available online at http://iccvam.niehs.nih.gov/methods/endocrine/endodocs/SubmDoc.pdf).
A brief summary of the method of the aforementioned MCF-7 assay is provided below. MCF-7, clone WS8, cells are maintained at 37° C. in RMPI (or Roswell Park Memorial Institute medium) containing Phenol Red (e.g., GIBCO Catalog Number 11875119) and supplemented with the indicated additives for routine culture. An aliquot of cells maintained at 37° C. are grown for 2 days in phenol-free media containing 5% charcoal stripped fetal bovine serum in a 25 cm^2 tissue culture flask. Using a robotic dispenser such as an epMotion 5070 unit, MCF-7 cells are then seeded at 400 cells per well in 0.2 ml of hormone-free culture medium in Corning 96-well plates. The cells are adapted for 3 days in the hormone-free culture medium prior to adding the chemical to be assayed for estrogenic activity. The media containing the test chemical is replaced daily for 6 days. At the end of the 7-day exposure to the test chemical, the media is removed, the wells are washed once with 0.2 ml of HBSS (Hanks' Balanced Salt Solution), and then assayed to quantify amounts of DNA per well using a micro-plate modification of the Burton diphenylamine (DPA) assay, which is used to calculate the level of cell proliferation.
RPE is the ratio between the EC50 of the test chemical and the EC50 of the control substance 17-beta estradiol times 100, where EC50 is “effective concentration 50%” or half-maximum stimulation concentration for cell proliferation measured as total DNA in the MCF-7 assay.

Structure (SMILES)	Log RPE
C[C@]12CC[C@@H]3c4ccc(O)cc4CC[C@H]3[C@@H]1CC[C@@H]2O [17β-estradiol]	2.00
Oc1ccc(Cc2ccc(O)cc2)cc1 [Bisphenol F]	−2
O=S(=O)(c1ccc(O)cc1)c1ccc(O)cc1 [Bisphenol S]	−2
